# Assay results as given in US12636373B2, “Prodrugs with a tridentate self-immolative linker” (The General Hospital Corporation, priority 2018, dated 2026).
# Where a SMILES comes first, the peptide text is derived from it. [ ]: non-standard residue; d: D form. The star is where a group is joined. Dolaproine = CO[C@@H]([C@@H]1CCCN1)[C@@H](C)C(=O)O; Dil = CC[C@H](C)[C@H](NC)[C@@H](CC(=O)O)OC; X2 = C[C@@H](N*)[C@@H](O)c1ccccc1; NMeV = CN[C@H](C(=O)O)C(C)C
# How the values were obtained:
# [1] = cited from earlier work
# [2] = test system: HT1080-EB3-mApple cells; test: EB3 microtubule comet imaging in live cells; format: cell-based, human; conditions: individual treatment, 24 h; 1 μM MMAE or C16proMMAE, 35 μM Pd-NP
# Protocol: Microtubule imaging. EB3 tracking was performed using an FV1000 confocal laser scanning microscope on a 37° C. heated stage, with XLUMPLFLN 20× (NA 1.0) or LUMFLN 60× (NA 1.1) water-immersion objectives, 1-10× digital zoom, 559-nm diode laser, and BA575-620 emission filter (all Olympus America). […] EB3 tracks were automatically identified and analyzed from time-lapse datasets using u-track software,^35 with tuning of maximum gap number and minimum frame number across datasets to account for differences in image quality; ambiguous and spurious tracks and artifacts were excluded according to requirements for directional continuity (directional persistence as net displacement/path length>0.8) and movement (value>3 pixels). Speed was determined between frames in each track and averaged for each track by computing the mean of the middle 80% of between-frame values. Track overlay figures were produced using a custom python script. Averaged track speeds excluded outliers falling more than 1.5× the interquartile range for each biological replicate.
# [3] = Nano-encapsulation (loading) efficiency, PLGA-PEG nanoprecipitation; format: physicochemical; conditions: PLGA-PEG polymeric micellar formulation
# Protocol: Initial experiments determined up to 1 mg of C16 prodrug could be used with the same polymer composition with no detectable loss in loading efficiency. For fluorescence-based imaging and flow-cytometric detection of NP uptake, PLGA-BODIPY630 was used instead of PLGA (described previously).^5 NP drug and Pd compound loadings were determined by absorbance (Nanodrop spectrophotometer), interpolation from a standard curve (R^2>0.99) after 1:10 dilution in DMF. Size and zeta potential measurements were performed using dynamic light scattering (Malvern Zetasizer). Prodrug loading efficiency is defined as the fraction of initial drug used in the nano-precipitation reaction that was successfully encapsulated and recovered in final NP product.
smiles,measurement,setting,value
"CC[C@H](C)[C@@H]([C@@H](CC(=O)N1CCC[C@H]1[C@H](OC)[C@@H](C)C(=O)N[C@H](C)[C@@H](O)c1ccccc1)OC)N(C)C(=O)[C@@H](NC(=O)[C@@H](NC)C(C)C)C(C)C [MMAE, monomethyl auristatin E] (H-[NMeV]V[Dil][Dolaproine]-X2)",toxicity at equivalent doses,[1],severely toxic and above the maximum tolerated dose
same,microtubule comets (prevalence and growth speed),[2],complete elimination of visible comets
same,nano-encapsulation efficiency,[3],undetectable
